The target of one test is T1, mTOR (Homo sapiens, UniProt P42345).
T1 construct: purchased Invitrogen
Nature of the test: mTOR kinase inhibition assay (radiometric or LanthaScreen TR-FRET). The class given is biochemical. The following applies: read-out: mTORC IC50. A general note: TR-FRET usually uses a lanthanide donor and a delayed reading to cut background.

The target in the next test is PI3K β (Homo sapiens, UniProt P42338). The test can be described thus: PI 3-Kinase (human) HTRF assay, PI3K β. The following applies: read-out: PI3K β IC50.
In a further test the target is PI3K γ (Homo sapiens, UniProt P48736). The test can be described thus: PI 3-Kinase (human) HTRF assay, PI3K γ.
Another test concerns the target PI3K α (Homo sapiens, UniProt P42336). The test can be described thus: PI 3-Kinase (human) HTRF assay, PI3K α.
Another test addresses PI3K δ (Homo sapiens, UniProt O00329). Nature of the test: PI 3-Kinase (human) HTRF assay, PI3K δ. The following applies: read-out: PI3K δ IC50.
The mark [1] stands for this setting: read-out: PI3K α IC50, in vitro.
The mark [2] stands for this setting: read-out: PI3K γ IC50, in vitro.

Data on 21 compounds can be found in patent US9295673B2, “Combination of mTOR inhibitors and P13-kinase inhibitors, and uses thereof” (Intellikine LLC, priority 2011, dated 2016).

Each structure is given as a SMILES string. Read-outs that look alike come from different tables or passages of the source.

PI3K γ, sequence (P48736 whole entry): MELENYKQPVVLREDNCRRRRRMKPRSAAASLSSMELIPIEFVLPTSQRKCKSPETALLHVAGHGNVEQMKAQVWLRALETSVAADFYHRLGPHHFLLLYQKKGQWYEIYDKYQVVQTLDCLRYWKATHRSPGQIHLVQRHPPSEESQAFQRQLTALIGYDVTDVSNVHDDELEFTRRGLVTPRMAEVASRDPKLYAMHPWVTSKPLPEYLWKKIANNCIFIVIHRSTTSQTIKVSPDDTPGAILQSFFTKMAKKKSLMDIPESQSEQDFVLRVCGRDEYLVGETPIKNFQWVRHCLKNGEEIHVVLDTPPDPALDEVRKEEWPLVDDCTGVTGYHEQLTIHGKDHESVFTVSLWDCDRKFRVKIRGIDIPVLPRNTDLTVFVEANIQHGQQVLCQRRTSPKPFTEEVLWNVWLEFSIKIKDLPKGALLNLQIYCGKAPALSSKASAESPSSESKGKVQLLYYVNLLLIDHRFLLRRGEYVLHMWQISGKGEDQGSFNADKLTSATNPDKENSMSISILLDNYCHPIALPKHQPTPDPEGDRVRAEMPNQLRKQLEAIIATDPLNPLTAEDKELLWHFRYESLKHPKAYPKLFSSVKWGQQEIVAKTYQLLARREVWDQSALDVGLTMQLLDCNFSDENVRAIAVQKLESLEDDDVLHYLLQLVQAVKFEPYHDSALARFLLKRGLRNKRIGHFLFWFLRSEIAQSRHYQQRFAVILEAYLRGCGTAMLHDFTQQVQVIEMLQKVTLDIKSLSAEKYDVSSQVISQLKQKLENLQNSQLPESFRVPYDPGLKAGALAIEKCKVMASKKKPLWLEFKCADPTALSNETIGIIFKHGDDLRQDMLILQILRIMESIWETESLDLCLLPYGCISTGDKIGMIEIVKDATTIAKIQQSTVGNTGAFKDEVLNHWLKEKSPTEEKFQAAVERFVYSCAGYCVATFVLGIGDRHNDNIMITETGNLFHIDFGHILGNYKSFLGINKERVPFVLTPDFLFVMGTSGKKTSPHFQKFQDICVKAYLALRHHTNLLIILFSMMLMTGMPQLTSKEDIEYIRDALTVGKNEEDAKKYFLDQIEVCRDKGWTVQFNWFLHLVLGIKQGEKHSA
PI3K δ, sequence (O00329 whole entry): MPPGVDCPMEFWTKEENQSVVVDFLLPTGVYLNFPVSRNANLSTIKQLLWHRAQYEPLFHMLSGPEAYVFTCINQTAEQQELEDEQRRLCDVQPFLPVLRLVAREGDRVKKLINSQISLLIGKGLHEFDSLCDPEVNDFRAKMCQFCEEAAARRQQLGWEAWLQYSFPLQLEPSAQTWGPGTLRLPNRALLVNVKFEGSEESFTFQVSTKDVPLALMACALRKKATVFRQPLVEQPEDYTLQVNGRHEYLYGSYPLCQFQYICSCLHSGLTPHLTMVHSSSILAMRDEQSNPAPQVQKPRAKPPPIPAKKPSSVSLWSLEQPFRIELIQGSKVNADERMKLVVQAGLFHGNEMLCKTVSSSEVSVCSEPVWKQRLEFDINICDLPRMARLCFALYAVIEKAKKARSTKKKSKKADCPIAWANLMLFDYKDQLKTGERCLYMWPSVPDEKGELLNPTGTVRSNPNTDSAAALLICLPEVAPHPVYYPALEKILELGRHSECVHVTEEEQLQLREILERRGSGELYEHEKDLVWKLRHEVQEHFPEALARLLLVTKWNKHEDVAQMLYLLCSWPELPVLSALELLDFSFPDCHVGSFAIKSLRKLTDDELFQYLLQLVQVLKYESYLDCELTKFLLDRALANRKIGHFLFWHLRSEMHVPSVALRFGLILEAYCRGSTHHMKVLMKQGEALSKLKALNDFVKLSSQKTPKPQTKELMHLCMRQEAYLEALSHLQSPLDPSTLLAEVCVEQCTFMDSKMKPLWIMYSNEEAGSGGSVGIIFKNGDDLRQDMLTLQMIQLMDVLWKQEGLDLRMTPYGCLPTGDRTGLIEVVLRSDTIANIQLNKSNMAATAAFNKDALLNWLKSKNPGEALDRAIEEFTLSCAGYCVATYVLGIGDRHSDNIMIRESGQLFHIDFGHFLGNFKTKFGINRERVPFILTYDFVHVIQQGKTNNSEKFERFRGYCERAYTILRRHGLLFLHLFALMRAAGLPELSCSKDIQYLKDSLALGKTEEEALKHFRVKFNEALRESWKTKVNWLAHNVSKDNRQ
PI3K δ, sequence (P27986 whole entry partner): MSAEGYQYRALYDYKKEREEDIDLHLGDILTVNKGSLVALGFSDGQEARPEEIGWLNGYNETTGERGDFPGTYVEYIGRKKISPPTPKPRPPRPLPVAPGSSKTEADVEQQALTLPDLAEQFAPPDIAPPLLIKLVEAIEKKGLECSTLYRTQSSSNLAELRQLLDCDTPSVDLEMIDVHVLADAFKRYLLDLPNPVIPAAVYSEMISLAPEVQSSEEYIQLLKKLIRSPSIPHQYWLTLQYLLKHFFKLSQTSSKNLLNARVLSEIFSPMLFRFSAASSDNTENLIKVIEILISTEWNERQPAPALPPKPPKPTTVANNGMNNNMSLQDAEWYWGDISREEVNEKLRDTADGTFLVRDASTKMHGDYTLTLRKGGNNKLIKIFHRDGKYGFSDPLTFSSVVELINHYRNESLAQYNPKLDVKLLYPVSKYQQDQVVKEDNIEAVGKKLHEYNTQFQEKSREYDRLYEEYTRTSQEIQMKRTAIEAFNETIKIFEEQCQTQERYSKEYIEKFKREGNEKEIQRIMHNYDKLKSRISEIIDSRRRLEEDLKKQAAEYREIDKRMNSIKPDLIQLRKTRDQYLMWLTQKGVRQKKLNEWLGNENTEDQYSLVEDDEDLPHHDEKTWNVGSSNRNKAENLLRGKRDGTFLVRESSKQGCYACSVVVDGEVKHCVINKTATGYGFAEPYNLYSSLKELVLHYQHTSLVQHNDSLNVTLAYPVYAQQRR
T1 sequence (P42345 1360-2549 limits assumed): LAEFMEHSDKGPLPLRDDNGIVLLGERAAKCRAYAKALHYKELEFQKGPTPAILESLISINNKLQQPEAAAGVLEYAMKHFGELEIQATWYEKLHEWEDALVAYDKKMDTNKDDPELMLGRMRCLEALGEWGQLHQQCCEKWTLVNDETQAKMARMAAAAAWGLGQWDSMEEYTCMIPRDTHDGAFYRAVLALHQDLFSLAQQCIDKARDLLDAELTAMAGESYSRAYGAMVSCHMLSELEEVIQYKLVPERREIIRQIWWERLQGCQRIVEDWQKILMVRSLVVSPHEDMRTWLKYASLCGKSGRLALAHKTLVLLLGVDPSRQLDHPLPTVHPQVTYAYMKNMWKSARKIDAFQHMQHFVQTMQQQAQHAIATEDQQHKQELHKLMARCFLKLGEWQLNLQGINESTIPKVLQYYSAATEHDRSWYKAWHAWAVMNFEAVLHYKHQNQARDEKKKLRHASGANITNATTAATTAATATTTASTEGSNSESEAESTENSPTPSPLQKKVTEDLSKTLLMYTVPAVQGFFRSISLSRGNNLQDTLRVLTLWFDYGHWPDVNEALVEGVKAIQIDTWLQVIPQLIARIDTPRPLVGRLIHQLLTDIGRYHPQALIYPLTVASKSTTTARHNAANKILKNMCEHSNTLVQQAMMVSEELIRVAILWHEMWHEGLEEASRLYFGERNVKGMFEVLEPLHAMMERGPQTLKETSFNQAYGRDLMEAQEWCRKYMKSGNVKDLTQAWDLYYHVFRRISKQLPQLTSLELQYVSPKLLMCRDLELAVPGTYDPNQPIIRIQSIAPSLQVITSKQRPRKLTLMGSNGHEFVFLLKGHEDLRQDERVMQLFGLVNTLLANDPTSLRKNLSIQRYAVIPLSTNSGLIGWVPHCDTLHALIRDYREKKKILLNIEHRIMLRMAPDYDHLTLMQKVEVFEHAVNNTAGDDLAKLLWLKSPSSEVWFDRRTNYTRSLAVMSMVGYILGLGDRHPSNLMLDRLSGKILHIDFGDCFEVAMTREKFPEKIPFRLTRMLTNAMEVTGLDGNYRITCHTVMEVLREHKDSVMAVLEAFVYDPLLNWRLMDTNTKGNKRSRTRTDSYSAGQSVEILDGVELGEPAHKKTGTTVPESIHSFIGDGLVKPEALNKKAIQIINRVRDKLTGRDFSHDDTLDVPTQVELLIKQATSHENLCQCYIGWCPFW
Procedure for PI3K α: (§1) An exemplary system is PI 3-Kinase (human) HTRF™ Assay from Upstate. […] Briefly, the assay is a time resolved FRET assay that indirectly measures PIP3 product formed by the activity of a PI3-K. The kinase reaction is performed in a microtitre plate (e.g., a 384 well microtitre plate). The total reaction volume is approximately 20 ul per well. In the first step, each well receives 2 ul of test compound in 20% dimethylsulphoxide resulting in a 2% DMSO final concentration. […] The plate is sealed and incubated for 15 minutes at room temperature. […] The plate is sealed and incubated for 1 hour at room temperature. The reaction is stopped by adding 5 ul of Stop Solution per well and then 5 ul of Detection Mix is added per well. The plate is sealed, incubated for 1 hour at room temperature, and then read on an appropriate plate reader. Data is analyzed and IC50s are generated using GraphPad Prism 5.
Procedure for PI3K δ: as §1
Procedure for mTOR: The compounds described herein can be tested against recombinant mTOR (Invitrogen) in an assay containing 50 mM HEPES, pH 7.5, 1 mM EGTA, 10 mM MgCl2, 2.5 mM, 0.01% Tween, 10 μM ATP (2.5 μCi of μ-32P-ATP), and 3 mg/mL BSA. Rat recombinant PHAS-1/4EBP1 (Calbiochem; 2 mg/mL) is used as a substrate. Reactions are terminated by spotting onto nitrocellulose, which is washed with 1M NaC1/1% phosphoric acid (approximately 6 times, 5-10 minutes each). Sheets are dried and the transferred radioactivity quantitated by phosphorimaging.
For instance, one can use Invitrogen's LanthaScreen™ Kinase assay to test the inhibitors of mTOR disclosed herein. This assay is a time resolved FRET platform that measures the phosphorylation of GFP labeled 4EBP1 by mTOR kinase. The kinase reaction is performed in a white 384 well microtitre plate. The total reaction volume is 20 ul per well and the reaction buffer composition is 50 mM HEPES pH7.5, 0.01% Polysorbate 20, 1 mM EGTA, 10 mM MnCl2, and 2 mM DTT. In the first step, each well receives 2 ul of test compound in 20% dimethylsulphoxide resulting in a 2% DMSO final concentration. […] The plate is sealed and incubated for 1 hour at room temperature. […] The plate is sealed, incubated for 1 hour at room temperature, and then read on a plate reader set up for LanthaScreen™ TR-FRET. Data is analyzed and IC50s are generated using GraphPad Prism 5.

As to `COc1cc2cc(-c3nn(C(C)C)c4ncnc(N)c34)[nH]c2cc1Cl` [Compound 29], the IC50 on mTOR (Table 2) was > 0.5 µM.
With `Nc1nc2cc(-c3ccc4ncc(C(=O)NC5CCC(O)CC5)n4c3)ccc2o1` (stereo not drawn) [Compound 143], the IC50 is > 10 µM at mTOR, < 10 µM at PI3K β and < 0.1 µM at PI3K γ (read-out: PI3K γ IC50).
Take `CC(C)[C@H](N)C(=O)N1CCN(c2cnc3ccc(-c4ccc5oc(N)nc5c4)cc3n2)CC1` [Compound 269]: the half-maximal inhibitory concentration (IC50) was < 100 nM on PI3K α (read-out: PI3K α IC50), < 1 µM on PI3K β and < 1 µM at PI3K δ.
As for `CC(C)n1nc(-c2cc3cc(O)ccc3[nH]2)c2c(N)nccc21` [Compound 45], on mTOR (Table 2), the IC50 was > 0.5 µM.
Turning to `CC(=O)Nc1nc2ccc(-c3nc(N4CCOCC4)c4sc(CN5CCN(S(C)(=O)=O)CC5)cc4n3)cc2s1` [Compound 130], the IC50 on PI3K α (read-out: PI3K α IC50) is > 10000 nM; on PI3K β, > 10 µM; on PI3K γ (read-out: PI3K γ IC50) it was > 10 µM; on PI3K δ, > 10 µM.
On to `Cn1ncc2c(-c3ccc4ncc(C(=O)N5CCOCC5)n4c3)cncc21` [Compound 537], for which the IC50 at PI3K α (setting [1]) is < 10000 nM; at PI3K γ (setting [2]) it was < 10 µM.
With `CCOC(=O)Cn1nc(-c2cc3cc(O)ccc3[nH]2)c2c(N)ncnc21` [Compound 28], the IC50 on mTOR (Table 2) was < 0.5 µM; on PI3K α (read-out: PI3K α IC50) it was > 500 nM; at PI3K β (Table 2), > 0.5 µM; at PI3K δ, > 0.5 µM.
On to `Nc1nc2cc(-c3ccc4ncc(N5CC(N6CC7CCC(C6)O7)C5)nc4n3)ccc2o1` [Compound 571], for which the 50% inhibitory concentration (IC50) on PI3K α (read-out: PI3K α IC50, Table 4) is < 1000 nM; on PI3K β (Table 4), > 10 µM; at PI3K γ (read-out: PI3K γ IC50, Table 4) it was < 10 µM; at PI3K δ (Table 4), > 10 µM.
`C[C@H]1CN(c2cnc3ccc(-c4ccc5oc(N)nc5c4)cc3n2)CCN1C` [Compound 332]: the half-inhibitory concentration (IC50) on PI3K α (read-out: PI3K α IC50) is < 1000 nM; on PI3K β it was < 0.1 µM; at PI3K δ, < 10 µM.
Consider `Nc1nc2cc(-c3ccc4ncc(N5CC(N6C7CCC6COC7)C5)nc4n3)ccc2o1` [Compound 602], for which the half-inhibitory concentration (IC50) at PI3K α (read-out: PI3K α IC50) was < 10000 nM; at PI3K β (Table 4), > 10 µM; on PI3K γ (read-out: PI3K γ IC50) it was > 10 µM; on PI3K δ, > 10 µM.
Regarding `Nc1nc2cc(-c3ccc4ncc(C(=O)NCCOCCO)n4c3)ccc2o1` [Compound 550], the values for the IC50 at PI3K α and on PI3K γ were < 1000 nM and < 1 µM, respectively.
`C[C@@H]1CN(C2CN(c3cnc4ccc(-c5ccc6oc(N)nc6c5)nc4c3)C2)CCN1C` [Compound 608]: the IC50 on mTOR (Table 4) was > 10 µM; at PI3K β (Table 4), < 10 µM; at PI3K γ (read-out: PI3K γ IC50, Table 4), < 10 µM.
Regarding `Nc1cc(-c2ccc3ncc(C(=O)N4CCOCC4)n3c2)cnc1Cl` [Compound 415], the half-inhibitory concentration (IC50) at PI3K α (setting [1]) is < 10000 nM; on PI3K β (in vitro), > 10 µM; on PI3K γ (setting [2]), > 10 µM; at PI3K δ (in vitro), > 10 µM.
As to `C[C@@H]1CN(C2CN(c3cnc4ccc(-c5ccc6oc(N)nc6c5)nc4c3)C2)CCN1` [Compound 607], the IC50 on mTOR (Table 4) is > 10 µM; at PI3K β (Table 4) it was < 10 µM.
Consider `Nc1nc2cc(-c3ccc4ncc(N5CC(N6C7CCC6COC7)C5)cc4n3)ccc2o1` [Compound 618], for which the half-maximal inhibitory concentration (IC50) on PI3K α (read-out: PI3K α IC50, Table 4) was < 100 nM; on PI3K β (Table 4), > 10 µM; at PI3K γ (read-out: PI3K γ IC50, Table 4), < 1 µM; at PI3K δ, < 10 µM.
Consider `[2H]C1([2H])OC([2H])([2H])C([2H])([2H])N(C(=O)c2cnc3ccc(-c4ccc5oc(N)nc5c4)cn23)C1([2H])[2H]` [Compound 529], for which the IC50 is < 1000 nM on PI3K α (setting [1]), > 10 µM on PI3K β (in vitro) and > 10 µM on PI3K δ (in vitro).
Take `Nc1nc2cc(-c3ccc4ncc(C(=O)N5CCN(CC6CC6)CC5)n4c3)ccc2o1` [Compound 161]: the IC50 is < 1000 nM at PI3K α (read-out: PI3K α IC50), < 10 µM on PI3K β, < 10 µM on PI3K γ (read-out: PI3K γ IC50) and < 10 µM on PI3K δ.
`Nc1nc2cc(-c3cnc4ccc(N5CCOCC5)nc4c3)ccc2o1` [Compound 624]: the IC50 was < 10000 nM on PI3K α (read-out: PI3K α IC50, Table 4) and < 10 µM at PI3K γ (read-out: PI3K γ IC50, Table 4).
For the compound `O=C(c1cnc2ccc(-c3ccnc4[nH]ncc34)cn12)N1CCOCC1` [Compound 532], the results for the half-maximal inhibitory concentration (IC50) on mTOR (in vitro) and on PI3K α (setting [1]) were > 10 µM and < 10000 nM, respectively.
Take `Cc1ccc(NC(=O)c2cnc3ccc(-c4ccc5oc(N)nc5c4)cn23)cn1` [Compound 294]: the IC50 is < 100 nM on PI3K α (read-out: PI3K α IC50), > 10 µM at PI3K β, < 0.1 µM on PI3K γ (read-out: PI3K γ IC50) and < 10 µM at PI3K δ.
Consider `Nc1nc2cc(-c3cnc4ccc(N5C6CCC5COC6)nc4c3)ccc2o1` [Compound 632], for which the concentration for half-maximal inhibition (IC50) at PI3K α (read-out: PI3K α IC50) was < 10000 nM; at PI3K β (Table 4) it was > 10 µM; at PI3K γ (read-out: PI3K γ IC50), < 10 µM; at PI3K δ, > 10 µM.

What is called IC50 is the concentration at which inhibition is half-maximal.
